# Values of other authors, collected in patent publication US9957484B2, “Methods for promoting cell reprogramming” (Sanford-Burnham Medical Research Institute, priority 2011, dated 2018).
# Assays:
# Conditions in all cases: kind of value not given; cited from earlier work
# Cdk1 = Cdk1 (Homo sapiens, UniProt P06493)
# Chk1 = Chk1 (Homo sapiens, UniProt O14757)
# PKCδ = PKCδ (Homo sapiens, UniProt Q05655)
# PDK1 = PDK1 (Homo sapiens, UniProt O15530)
# PKCβ = PKCβ (Homo sapiens, UniProt P05771)
# PAK4 = PAK4 (Homo sapiens, UniProt O96013)
# MAPKAP kinase-2 = MAPKAP kinase-2 (Homo sapiens, UniProt P49137)
# Lck = Lck (Homo sapiens, UniProt P06239)
# Chk2 = Chk2 (Homo sapiens, UniProt O96017)
# Cdk5/p25 = Cdk5/p25 (Homo sapiens, UniProt Q00535)
# [1] = biological target: Cdc25C-associated protein kinase 1 (Homo sapiens, UniProt P27448)
# PKCα = PKCα (Homo sapiens, UniProt P17252)
# PKCγ = PKCγ (Homo sapiens, UniProt P05129)
# MEK1 = MEK1 (Homo sapiens, UniProt Q02750)
# myosin II heavy chain = tested on: myosin II heavy chain
# PKCδ, sequence (Q05655 whole entry): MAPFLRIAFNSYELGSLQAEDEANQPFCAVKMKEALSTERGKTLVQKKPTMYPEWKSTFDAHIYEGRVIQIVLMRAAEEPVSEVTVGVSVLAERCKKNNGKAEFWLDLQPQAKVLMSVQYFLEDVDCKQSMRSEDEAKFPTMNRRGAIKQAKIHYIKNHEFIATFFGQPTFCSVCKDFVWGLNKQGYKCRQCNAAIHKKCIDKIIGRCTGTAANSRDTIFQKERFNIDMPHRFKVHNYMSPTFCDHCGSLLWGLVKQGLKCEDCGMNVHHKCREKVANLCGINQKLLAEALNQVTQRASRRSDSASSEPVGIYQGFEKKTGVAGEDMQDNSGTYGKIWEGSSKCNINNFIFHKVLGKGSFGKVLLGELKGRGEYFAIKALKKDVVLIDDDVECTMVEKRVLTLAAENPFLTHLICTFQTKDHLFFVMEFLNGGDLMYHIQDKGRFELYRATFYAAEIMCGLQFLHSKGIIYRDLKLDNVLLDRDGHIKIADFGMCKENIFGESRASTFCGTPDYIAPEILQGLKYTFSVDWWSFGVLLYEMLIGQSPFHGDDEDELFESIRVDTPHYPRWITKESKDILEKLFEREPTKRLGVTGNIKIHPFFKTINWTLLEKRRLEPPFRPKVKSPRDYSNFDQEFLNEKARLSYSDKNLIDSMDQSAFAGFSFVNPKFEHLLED
# Cdk1, sequence (P06493 whole entry, species assumed): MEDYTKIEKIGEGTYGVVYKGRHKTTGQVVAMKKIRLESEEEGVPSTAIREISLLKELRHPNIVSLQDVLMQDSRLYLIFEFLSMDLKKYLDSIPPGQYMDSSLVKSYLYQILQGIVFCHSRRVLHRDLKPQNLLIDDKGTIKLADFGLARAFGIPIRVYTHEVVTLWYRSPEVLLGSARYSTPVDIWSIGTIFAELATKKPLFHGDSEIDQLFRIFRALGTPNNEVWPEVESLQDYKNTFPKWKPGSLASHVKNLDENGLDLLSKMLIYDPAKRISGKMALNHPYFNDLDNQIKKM
# Cdk1, sequence (P14635 whole entry partner, species assumed): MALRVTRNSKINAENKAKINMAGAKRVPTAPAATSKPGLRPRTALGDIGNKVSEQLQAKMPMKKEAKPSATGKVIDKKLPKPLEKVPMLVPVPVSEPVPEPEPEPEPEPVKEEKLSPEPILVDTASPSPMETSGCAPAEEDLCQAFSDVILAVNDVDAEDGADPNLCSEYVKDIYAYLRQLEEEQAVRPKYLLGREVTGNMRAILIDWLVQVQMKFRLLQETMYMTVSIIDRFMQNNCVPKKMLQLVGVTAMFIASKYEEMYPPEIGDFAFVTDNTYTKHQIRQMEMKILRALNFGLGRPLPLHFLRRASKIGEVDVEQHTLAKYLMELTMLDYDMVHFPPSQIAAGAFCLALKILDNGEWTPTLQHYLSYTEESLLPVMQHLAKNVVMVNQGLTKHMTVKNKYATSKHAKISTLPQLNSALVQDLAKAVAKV
# Lck, sequence (P06239 whole entry): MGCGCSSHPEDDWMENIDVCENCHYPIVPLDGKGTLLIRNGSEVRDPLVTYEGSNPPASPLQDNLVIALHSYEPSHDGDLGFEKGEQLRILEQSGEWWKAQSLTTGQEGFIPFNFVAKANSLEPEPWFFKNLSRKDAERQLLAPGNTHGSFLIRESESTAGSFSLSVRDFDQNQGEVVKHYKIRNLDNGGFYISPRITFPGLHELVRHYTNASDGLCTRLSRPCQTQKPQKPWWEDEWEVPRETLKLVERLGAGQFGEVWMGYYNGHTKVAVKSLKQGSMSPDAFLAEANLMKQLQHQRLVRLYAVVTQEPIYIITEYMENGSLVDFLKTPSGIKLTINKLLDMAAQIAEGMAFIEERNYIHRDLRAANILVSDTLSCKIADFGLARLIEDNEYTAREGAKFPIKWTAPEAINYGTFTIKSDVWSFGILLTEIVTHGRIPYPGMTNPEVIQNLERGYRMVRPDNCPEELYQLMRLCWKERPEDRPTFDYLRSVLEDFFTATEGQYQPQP
# Cdk5/p25, sequence (Q00535 whole entry, species assumed): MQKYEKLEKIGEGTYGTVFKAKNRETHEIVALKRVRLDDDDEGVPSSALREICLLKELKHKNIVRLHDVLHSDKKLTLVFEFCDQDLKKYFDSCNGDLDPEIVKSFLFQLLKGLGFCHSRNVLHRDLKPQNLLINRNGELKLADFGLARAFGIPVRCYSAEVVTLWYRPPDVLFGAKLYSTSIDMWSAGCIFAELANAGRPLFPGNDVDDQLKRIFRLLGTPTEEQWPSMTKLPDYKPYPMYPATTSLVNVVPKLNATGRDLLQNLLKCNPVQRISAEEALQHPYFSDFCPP
# Cdk5/p25, sequence (Q15078 99-307 partner limits assumed, species assumed): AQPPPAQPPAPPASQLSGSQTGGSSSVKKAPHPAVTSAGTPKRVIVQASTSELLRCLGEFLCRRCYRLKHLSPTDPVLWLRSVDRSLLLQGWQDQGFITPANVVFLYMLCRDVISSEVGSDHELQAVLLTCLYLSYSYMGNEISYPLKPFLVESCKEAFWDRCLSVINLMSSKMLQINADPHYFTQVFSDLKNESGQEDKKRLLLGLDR
# Cdc25C-associated protein kinase 1, sequence (P27448 whole entry): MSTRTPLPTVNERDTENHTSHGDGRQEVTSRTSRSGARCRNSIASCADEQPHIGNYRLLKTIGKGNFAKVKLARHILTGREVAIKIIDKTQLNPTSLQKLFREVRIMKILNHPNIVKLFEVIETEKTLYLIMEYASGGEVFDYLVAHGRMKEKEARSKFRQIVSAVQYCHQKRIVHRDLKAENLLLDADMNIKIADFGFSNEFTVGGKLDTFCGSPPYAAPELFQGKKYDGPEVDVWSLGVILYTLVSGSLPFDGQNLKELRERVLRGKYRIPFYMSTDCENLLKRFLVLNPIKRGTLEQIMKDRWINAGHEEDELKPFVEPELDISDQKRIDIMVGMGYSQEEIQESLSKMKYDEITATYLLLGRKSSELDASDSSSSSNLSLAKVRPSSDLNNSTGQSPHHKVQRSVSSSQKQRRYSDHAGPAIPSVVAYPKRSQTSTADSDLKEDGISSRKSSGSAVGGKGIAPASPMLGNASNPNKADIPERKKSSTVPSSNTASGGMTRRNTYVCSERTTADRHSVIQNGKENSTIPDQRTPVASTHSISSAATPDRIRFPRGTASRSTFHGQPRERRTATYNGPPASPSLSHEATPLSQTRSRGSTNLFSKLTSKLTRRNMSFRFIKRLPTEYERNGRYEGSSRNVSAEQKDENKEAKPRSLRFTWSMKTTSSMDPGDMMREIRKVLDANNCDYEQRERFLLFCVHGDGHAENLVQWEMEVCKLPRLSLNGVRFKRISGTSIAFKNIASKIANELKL
# Chk1, sequence (O14757 whole entry, species assumed): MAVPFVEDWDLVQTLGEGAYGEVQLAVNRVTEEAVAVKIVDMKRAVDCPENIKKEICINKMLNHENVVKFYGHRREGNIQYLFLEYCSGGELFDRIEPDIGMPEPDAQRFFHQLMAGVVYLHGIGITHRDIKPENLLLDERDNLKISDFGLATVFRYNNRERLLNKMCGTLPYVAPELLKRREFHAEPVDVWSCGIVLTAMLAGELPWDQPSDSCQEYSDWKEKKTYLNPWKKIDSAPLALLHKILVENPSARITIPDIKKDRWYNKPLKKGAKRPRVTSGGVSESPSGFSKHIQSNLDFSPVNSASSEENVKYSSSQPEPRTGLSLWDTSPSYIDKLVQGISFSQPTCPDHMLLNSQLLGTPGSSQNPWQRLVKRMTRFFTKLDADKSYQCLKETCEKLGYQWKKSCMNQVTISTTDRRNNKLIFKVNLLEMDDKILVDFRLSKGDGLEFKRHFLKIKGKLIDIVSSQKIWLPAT
# Chk2, sequence (O96017 whole entry, species assumed): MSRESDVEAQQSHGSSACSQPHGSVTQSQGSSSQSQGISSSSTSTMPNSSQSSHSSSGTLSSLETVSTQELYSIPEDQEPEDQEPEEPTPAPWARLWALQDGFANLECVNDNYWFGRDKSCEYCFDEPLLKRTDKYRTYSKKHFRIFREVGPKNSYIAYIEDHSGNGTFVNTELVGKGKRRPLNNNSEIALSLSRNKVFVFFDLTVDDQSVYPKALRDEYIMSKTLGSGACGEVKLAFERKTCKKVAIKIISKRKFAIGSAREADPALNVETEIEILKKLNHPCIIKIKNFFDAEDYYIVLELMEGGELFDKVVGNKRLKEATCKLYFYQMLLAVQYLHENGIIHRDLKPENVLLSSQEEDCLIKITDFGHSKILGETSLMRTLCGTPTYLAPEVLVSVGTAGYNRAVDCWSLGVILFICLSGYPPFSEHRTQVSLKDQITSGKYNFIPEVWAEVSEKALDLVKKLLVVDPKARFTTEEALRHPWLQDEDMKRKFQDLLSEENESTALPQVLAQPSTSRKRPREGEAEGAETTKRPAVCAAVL
Compound,Potential Targets: Cdk1 (Cdk1),Potential Targets: Chk1 (Chk1),Potential Targets: PKCδ (PKCδ),Potential Targets: PDK1 (PDK1),Potential Targets: PKCβ (PKCβ),Potential Targets: PAK4 (PAK4),Potential Targets: MAPKAP kinase-2 (MAPKAP kinase-2),Potential Targets: Lck (Lck),Potential Targets: Chk2 (Chk2),Potential Targets: Cdk5/p25 (Cdk5/p25),Potential Targets: Cdc25C-associated protein kinase 1 [1],Potential Targets: PKCα (PKCα),Potential Targets: PKCγ (PKCγ),Potential Targets: MEK1 (MEK1),Potential Targets: myosin II heavy chain (myosin II heavy chain)
"CN[C@@H]1C[C@H]2O[C@@](C)([C@@H]1OC)n1c3ccccc3c3c4c(c5c6ccccc6n2c5c31)C(=O)N[C@@H]4O [BIM-0207189, UCN-01]",50 nM,7 nM,590 nM,33 nM,34 nM,50 nM,95 nM,50 nM,"1.04 μM for Chk1, Cdc25C-",150 nM,27 nM,9 nM,30 nM,–,–
"c1nc2nc(Nc3ccc(N4CCOCC4)cc3)nc(NC3CCCCC3)c2[nH]1 [BIM-0207192, Reversine]",–,–,–,–,–,–,–,–,–,–,–,–,–,"MEK1 (8 nM), myosin II heavy","chain (10 nM), Aurora kinases"
